Results as given in ChEMBL document CHEMBL1201862, “PubChem BioAssay data set” (2004).
The source made the active and inactive calls.

Assays:
[1] = biological target: T1, Voltage-gated N-type calcium channel alpha-1B subunit/Amyloid beta A4 precursor protein-binding family A member 1 (Homo sapiens, UniProt Q00975+Q02410); type: protein assay
[2] = biological target: T1, Voltage-gated N-type calcium channel alpha-1B subunit/Amyloid beta A4 precursor protein-binding family A member 1; type: protein assay; remark: listed apart in the source
[3] = biological target: G-protein coupled receptor 35 (Homo sapiens, UniProt Q9HC97); experiment: inhibition of zaprinast-stimulated GPR35 beta-arrestin translocation – imaging, U2OS, beta-arrestin-GFP, zaprinast agonist, primary screen (AID 2058); type: functional;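 further: antagonist potency meaning inhibition of agonist-induced arrestin redistribution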
G-protein coupled receptor 35, sequence (Q9HC97 whole entry): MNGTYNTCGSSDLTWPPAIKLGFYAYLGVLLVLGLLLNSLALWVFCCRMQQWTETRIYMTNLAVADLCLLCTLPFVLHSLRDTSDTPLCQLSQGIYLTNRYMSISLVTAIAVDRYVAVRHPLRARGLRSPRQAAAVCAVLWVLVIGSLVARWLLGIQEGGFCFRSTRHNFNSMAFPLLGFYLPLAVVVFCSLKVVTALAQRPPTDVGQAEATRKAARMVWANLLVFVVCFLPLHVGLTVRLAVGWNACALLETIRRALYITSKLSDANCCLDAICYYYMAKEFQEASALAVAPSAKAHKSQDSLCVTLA

[4] = Trypanosoma cruzi growth suppression in host cells – NIH3T3 host cells, beta-gal luminescence, confirmation (AID 2044); type: functional, cell-based;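 further: intracellular parasites grown in NIH/3T3 mouse fibroblasts as host cells; luminescent beta-galactosidase reporter signal from transgenic T. cruzi replicating inside host cells; inhibitors lower the luminescence signal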
[5] = NIH3T3 cell viability loss – ATP luminescence, mouse fibroblasts, counter-screen, dose response (AID 2010); type: functional, cell-based;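 further: cells exposed to compound for about 90 hours before reading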
[6] = biological target: T2, Voltage-dependent T-type calcium channel subunit alpha-1H (Homo sapiens, UniProt O95180); type: functional
T2 sequence (O95180 whole entry, the tested form may be a part): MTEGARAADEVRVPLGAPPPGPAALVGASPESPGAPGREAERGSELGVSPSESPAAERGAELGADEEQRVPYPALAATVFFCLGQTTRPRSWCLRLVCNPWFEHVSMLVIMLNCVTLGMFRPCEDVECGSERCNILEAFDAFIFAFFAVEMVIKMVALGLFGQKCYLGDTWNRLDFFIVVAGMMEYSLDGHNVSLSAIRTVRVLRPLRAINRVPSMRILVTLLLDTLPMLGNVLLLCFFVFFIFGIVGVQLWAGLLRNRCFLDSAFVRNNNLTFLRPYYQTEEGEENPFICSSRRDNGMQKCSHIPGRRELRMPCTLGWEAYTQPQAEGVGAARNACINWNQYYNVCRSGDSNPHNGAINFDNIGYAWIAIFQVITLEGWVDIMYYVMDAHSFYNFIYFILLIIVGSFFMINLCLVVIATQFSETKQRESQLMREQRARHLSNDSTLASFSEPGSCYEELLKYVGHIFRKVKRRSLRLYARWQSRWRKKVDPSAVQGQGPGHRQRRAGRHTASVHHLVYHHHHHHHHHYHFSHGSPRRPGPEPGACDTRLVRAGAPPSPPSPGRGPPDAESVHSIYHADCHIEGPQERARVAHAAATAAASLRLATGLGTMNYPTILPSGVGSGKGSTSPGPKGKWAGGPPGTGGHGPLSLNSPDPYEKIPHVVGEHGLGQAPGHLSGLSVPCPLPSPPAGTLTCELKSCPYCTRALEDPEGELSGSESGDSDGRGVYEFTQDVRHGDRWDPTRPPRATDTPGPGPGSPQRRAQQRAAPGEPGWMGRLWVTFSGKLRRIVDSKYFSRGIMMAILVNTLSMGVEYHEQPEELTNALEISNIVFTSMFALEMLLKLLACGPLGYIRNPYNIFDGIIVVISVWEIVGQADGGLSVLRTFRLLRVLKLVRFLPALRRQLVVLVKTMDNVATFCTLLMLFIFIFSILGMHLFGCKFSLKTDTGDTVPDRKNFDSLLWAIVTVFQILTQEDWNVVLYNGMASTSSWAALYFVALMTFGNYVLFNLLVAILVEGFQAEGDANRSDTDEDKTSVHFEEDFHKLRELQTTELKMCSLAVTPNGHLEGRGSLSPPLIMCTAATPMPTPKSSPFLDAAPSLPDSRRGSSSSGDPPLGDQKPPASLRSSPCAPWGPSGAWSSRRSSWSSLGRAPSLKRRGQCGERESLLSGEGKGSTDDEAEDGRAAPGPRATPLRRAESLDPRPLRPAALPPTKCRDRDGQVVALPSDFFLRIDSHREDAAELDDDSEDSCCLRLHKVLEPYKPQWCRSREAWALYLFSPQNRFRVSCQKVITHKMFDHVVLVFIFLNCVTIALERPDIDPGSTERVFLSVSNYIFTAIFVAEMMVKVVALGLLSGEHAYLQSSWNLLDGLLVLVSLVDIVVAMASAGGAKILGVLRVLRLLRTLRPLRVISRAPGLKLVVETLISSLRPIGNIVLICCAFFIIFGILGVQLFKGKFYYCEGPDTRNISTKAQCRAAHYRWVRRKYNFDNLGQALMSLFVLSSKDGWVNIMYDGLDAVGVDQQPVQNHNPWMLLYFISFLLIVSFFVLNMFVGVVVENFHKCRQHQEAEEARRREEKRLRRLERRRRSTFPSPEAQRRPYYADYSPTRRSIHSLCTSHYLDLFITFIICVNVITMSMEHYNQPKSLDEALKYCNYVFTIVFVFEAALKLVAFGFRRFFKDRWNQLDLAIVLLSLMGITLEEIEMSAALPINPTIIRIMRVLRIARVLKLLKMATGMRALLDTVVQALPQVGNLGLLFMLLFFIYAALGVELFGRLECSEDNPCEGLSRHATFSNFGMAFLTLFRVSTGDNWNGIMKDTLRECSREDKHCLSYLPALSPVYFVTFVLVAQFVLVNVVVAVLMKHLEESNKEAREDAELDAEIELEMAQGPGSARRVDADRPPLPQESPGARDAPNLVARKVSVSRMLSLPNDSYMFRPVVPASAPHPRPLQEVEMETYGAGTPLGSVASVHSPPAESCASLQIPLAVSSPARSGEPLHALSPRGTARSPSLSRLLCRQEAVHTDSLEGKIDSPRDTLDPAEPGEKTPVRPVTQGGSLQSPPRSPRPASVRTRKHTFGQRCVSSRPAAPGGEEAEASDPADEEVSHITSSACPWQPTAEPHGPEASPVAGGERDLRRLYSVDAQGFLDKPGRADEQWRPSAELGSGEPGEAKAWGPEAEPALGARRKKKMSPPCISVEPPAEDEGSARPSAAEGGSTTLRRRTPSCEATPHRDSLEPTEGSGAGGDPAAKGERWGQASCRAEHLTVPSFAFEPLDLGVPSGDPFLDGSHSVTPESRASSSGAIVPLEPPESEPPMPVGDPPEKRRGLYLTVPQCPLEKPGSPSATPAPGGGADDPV

[7] = biological target: T3, RNA-binding protein pos-1 (Caenorhabditis elegans, UniProt G5EF15); experiment: disruptors of C. elegans POS-1 RNA interaction – biochemical, fluorescence polarization, dose response (AID 1964);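 further: purified POS-1 fused to maltose binding protein made in E. coli; potency of compounds blocking POS-1 binding to fluorescent RNA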
T3 sequence (G5EF15 whole entry): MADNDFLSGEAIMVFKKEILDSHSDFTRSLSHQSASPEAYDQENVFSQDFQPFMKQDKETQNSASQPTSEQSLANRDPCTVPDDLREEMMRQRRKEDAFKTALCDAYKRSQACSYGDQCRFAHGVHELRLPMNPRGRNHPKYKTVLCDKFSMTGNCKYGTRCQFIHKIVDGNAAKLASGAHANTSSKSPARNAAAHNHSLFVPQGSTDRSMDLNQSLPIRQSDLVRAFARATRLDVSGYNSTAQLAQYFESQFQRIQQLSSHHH

[8] = biological target: T4, Zinc finger protein mex-5 (Caenorhabditis elegans, UniProt Q9XUB2); experiment: potency of MEX-5 RNA-binding blockers – biochemical, C. elegans, fluorescence polarization, dose response (AID 1960)
T4 sequence (Q9XUB2 whole entry): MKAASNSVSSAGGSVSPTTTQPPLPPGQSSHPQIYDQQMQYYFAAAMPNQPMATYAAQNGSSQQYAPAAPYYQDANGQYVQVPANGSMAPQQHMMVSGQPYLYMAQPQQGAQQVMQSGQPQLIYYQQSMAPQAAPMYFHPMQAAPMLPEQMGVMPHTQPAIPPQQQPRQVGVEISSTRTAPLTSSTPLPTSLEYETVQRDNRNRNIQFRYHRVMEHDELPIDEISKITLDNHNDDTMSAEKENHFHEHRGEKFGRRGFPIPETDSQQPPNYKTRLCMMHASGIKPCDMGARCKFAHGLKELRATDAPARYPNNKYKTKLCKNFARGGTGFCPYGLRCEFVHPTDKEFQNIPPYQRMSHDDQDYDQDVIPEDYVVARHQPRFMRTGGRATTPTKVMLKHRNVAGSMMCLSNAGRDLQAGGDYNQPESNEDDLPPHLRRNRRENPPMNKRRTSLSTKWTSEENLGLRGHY

[9] = biological target: T2, Voltage-dependent T-type calcium channel subunit alpha-1H; experiment: Inhibitors of T-Type Calcium Channels. [Related pubchem assays (depositor defined):AID449739, AID463087, AID489005, AID493041, AID504579, AID504584, AID504619, AID504628]; type: functional
[10] = biological target: Trypsin (Sus scrofa, UniProt P00761); experiment: trypsin protease activity blockade – biochemical, quenched peptide fluorescence, cherry-pick, selectivity assay for Rce1 protease inhibitor project, dose response (AID 488789)
Trypsin, sequence (P00761 whole entry): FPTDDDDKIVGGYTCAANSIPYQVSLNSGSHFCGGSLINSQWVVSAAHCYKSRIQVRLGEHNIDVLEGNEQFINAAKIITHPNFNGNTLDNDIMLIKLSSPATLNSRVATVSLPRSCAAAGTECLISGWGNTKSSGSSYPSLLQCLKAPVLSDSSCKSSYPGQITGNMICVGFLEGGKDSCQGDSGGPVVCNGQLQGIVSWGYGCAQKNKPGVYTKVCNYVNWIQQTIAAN

[11] = tested on: BJ; experiment: BJ-TERT fibroblast viability loss – cell-based, RAS-independent, luminescence, dose response (AID 1933); type: functional; conditions: Homo sapiens
[12] = tested on: BJ; experiment: cells; type: functional, cell-based; conditions: Homo sapiens
[13] = microbe, parasite or virus in culture; type: functional; conditions: Mycobacterium tuberculosis
[14] = tested on: BJ; experiment: BJ-TERT-LT-ST fibroblast viability loss – cell-based, RAS-independent, luminescence, dose response (AID 1935); type: functional; conditions: Homo sapiens;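 further: BJ fibroblasts immortalized with TERT plus LT and ST oncogenes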
[15] = DRD fibroblast viability loss – cell-based, non-viral oncogenic, luminescence, dose response (AID 1934); type: functional; conditions: Homo sapiens
[16] = biological target: G-protein coupled receptor 55 (Homo sapiens, UniProt Q9Y2T6); experiment: selective activators of receptor GPR55 – imaging, U2OS cells, beta-arrestin-GFP redistribution, primary screen (AID 1961); type: functional
[17] = Luminescence Cell-Based Dose Retest to Confirm Inhibitors of Cancer Stem Cells. [Related pubchem assays (depositor defined):AID2717, AID2721]; type: functional; conditions: Homo sapiens
[18] = tested on: BJ; experiment: growth inhibition of engineered Ras-driven BJ cells – cell-based, alamar blue fluorescence, cherrypicked samples, dose response (AID 2631); type: functional; conditions: Homo sapiens;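 further: confirmatory dose-response assay in RAS-dependent BJ fibroblasts engineered with TERT, LT and ST, with cytotoxicity read by fluorescence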
[19] = biological target: X-box-binding protein 1 (Homo sapiens, UniProt P17861); type: functional, Cricetulus griseus;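 further: confirmatory dose-response counter-screen serving a CHOP assay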
X-box-binding protein 1, sequence (P17861 whole entry): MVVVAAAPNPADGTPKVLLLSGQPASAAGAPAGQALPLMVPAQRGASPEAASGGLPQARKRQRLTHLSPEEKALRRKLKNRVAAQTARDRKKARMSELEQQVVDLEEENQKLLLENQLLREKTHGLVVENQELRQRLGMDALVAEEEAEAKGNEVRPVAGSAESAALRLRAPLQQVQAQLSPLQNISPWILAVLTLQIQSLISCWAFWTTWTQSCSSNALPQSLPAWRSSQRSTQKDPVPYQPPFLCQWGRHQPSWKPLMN

[20] = reduction of Shn3 3'UTR-driven luciferase in osteoblasts – cell-based, Clone20 osteoblasts, firefly luciferase, cherry-picked, dose response (AID 624132); type: functional;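 further: firefly luciferase luminescence from reporter carrying the Shn3 3'UTR in osteoblasts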
[21] = loss of viability in HepG2 cells – cell-based, CellTiter-Glo, cherry-picked, cytotoxicity control for Shn3 inhibitor project, dose response (AID 624134); type: functional
[22] = non-specific 3'UTR reporter inhibition in Clone20-Shn3RL – cell-based, Renilla luciferase, cherry-picked, counter-screen for Shn3 inhibitor project, dose response (AID 624133); type: functional
[23] = tested on: Streptococcus sp. 'group A'; experiment: Streptococcus pyogenes SK(-)GAS viability under kanamycin – luminescence, BacTiterGlo, confirmation, counter-screen for streptokinase expression inhibitor project, dose response (AID 1900); type: functional, organism-based
[24] = biological target: T5, Heat shock factor protein 1 (Mus musculus, UniProt P38532); experiment: decrease of HSF1-responsive luciferase luminescence – cell-based, NIH3T3, dose retest, confirmation (AID 2382); type: functional;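 further: NIH3T3 fibroblasts with HSF1-driven luciferase reporter stressed by proteasome inhibitor MG132; luminescence from HSF1-driven luciferase expression after 8 hours of MG132 stress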
T5 sequence (P38532 whole entry): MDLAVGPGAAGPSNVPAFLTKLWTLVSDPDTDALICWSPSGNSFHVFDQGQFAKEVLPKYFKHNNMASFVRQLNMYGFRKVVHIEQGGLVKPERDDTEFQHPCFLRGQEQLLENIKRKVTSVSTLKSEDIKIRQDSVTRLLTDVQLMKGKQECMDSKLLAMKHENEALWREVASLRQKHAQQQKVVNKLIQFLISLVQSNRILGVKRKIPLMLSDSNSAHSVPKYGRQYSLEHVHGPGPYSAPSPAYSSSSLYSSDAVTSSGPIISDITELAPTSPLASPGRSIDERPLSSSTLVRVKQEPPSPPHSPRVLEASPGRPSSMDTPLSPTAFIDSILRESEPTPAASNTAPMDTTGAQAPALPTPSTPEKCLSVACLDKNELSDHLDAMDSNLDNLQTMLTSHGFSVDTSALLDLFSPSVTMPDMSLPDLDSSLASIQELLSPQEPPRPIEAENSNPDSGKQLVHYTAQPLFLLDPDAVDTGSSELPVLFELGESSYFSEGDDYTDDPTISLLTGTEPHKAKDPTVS

[25] = biological target: T6, Streptokinase A (Streptococcus pyogenes serotype M1, UniProt P10520); experiment: viability-normalized secreted streptokinase activity reduction – plasminogen activation absorbance, OD405, dose response (AID 1914); type: functional, Streptococcus pyogenes M1 GAS;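 further: secreted streptokinase activity via plasminogen activation per viability signal from cell pellet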
T6 sequence (P10520 whole entry): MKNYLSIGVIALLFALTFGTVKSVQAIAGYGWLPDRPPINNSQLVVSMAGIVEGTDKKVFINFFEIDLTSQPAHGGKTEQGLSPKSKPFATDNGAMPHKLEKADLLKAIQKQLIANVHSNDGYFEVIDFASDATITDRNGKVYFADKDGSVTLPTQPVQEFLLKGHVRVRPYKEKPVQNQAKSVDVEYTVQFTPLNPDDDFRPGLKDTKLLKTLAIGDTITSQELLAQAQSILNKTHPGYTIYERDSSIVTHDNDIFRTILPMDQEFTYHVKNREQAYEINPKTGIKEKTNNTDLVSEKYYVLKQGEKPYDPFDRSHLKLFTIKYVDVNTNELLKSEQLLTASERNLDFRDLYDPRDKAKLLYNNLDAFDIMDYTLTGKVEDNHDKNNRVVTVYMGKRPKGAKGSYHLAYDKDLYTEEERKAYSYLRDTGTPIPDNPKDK

[26] = biological target: T7, Sphingosine 1-phosphate receptor 4 (Homo sapiens, UniProt O95977); experiment: Late stage fluorescence dose response cell-based screening assay for antagonists of the Sphingosine 1-Phosphate Receptor 4 (S1P4). [Related pubchem assays: 1524 (Confirmation screen (S1P4 antagonists).), 1510 (Primary screen (S1P4 antagonists).), 1853 (Summary AID (S1P4 antagonists).), 1692 (Dose response screen (S1P4 antagonists).)]; type: functional
T7 sequence (O95977 whole entry): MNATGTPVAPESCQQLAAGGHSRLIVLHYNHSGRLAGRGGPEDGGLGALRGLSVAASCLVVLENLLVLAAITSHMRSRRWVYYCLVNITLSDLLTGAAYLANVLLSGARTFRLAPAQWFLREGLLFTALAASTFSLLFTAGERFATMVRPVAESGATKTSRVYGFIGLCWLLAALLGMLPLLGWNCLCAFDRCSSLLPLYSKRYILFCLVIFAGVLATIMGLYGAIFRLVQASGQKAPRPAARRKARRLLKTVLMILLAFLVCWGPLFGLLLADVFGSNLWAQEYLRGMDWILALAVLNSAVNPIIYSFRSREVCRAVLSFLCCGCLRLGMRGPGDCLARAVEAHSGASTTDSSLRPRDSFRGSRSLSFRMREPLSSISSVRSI

[27] = biological target: T7, Sphingosine 1-phosphate receptor 4; experiment: Fluorescence dose response cell-based high throughput screening assay for antagonists of the Sphingosine 1-Phosphate Receptor 4 (S1P4). [Related pubchem assays: 1524 (Confirmation in triplicates.), 1510 (Primary screen.)]; type: functional
[28] = biological target: Sphingosine 1-phosphate receptor 1 (Homo sapiens, UniProt P21453); type: functional;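 further: Tango beta-arrestin reporter U2OS cells stimulated with S1P near its EC80; inhibitor potency meaning antagonism of receptor activation by the natural agonist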
Sphingosine 1-phosphate receptor 1, sequence (P21453 whole entry): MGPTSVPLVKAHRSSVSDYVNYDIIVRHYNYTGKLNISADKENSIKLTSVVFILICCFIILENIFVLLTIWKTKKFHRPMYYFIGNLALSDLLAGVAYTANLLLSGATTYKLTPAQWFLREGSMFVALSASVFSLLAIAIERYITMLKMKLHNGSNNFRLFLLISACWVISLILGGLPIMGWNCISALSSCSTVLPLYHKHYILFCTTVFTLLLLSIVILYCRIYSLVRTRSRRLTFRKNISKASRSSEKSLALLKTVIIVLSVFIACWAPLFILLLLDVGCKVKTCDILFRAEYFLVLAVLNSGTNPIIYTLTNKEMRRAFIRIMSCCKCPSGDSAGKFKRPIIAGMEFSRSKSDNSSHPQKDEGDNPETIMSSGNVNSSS

[29] = tested on: Streptococcus; experiment: GAS UMAA2166 growth inhibition – luminescence, BacTiterGlo, counter-screen for streptokinase expression inhibitor project, dose response (AID 1915); type: functional, organism-based;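 further: potency for reduction of bacterial viability or growth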
[30] = biological target: Beta-galactosidase (Escherichia coli, UniProt Q8VNN2); experiment: detection-enzyme interference by beta-gal modulators – biochemical, E. coli enzyme, set 3, artefact control for CCR6 antagonist project, dose response (AID 504712); type: functional
Beta-galactosidase, sequence (Q8VNN2 whole entry): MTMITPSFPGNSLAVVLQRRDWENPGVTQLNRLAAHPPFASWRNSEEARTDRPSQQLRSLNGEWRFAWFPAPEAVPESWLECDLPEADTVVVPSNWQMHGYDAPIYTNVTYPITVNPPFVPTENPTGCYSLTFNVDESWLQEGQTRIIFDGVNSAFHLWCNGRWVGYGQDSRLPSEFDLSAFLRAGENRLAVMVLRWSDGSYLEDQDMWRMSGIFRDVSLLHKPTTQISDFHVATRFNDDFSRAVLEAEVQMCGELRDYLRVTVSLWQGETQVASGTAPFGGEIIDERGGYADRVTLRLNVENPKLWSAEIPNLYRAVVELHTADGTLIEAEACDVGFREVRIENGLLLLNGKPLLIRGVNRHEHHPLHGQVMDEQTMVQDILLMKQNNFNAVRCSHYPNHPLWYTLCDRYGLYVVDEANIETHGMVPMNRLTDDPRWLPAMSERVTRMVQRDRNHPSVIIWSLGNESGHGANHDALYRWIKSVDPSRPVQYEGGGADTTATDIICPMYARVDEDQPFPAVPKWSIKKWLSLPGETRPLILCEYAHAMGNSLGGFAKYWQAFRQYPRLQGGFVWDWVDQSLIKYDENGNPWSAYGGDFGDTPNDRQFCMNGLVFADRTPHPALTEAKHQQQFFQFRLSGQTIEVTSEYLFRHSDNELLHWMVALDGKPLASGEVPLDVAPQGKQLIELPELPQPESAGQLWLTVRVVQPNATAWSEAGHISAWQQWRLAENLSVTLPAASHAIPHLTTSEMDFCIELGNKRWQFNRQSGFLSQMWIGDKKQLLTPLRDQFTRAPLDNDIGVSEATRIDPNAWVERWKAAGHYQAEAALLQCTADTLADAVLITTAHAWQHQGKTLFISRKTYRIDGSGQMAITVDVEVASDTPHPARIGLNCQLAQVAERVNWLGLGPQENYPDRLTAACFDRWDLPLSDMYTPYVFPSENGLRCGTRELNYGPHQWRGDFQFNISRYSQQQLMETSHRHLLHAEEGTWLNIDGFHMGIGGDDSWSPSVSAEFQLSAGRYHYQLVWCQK

[31] = biological target: Neurotensin receptor type 1 (Homo sapiens, UniProt P30989); type: functional;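 further: Image-based confirmatory dose-response assay measuring agonist activity at NTR1; NTR1-expressing U2OS osteosarcoma cells imaged for beta-arrestin GFP spot formation; agonist potency where compounds increase beta-arrestin recruitment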
Neurotensin receptor type 1, sequence (P30989 whole entry): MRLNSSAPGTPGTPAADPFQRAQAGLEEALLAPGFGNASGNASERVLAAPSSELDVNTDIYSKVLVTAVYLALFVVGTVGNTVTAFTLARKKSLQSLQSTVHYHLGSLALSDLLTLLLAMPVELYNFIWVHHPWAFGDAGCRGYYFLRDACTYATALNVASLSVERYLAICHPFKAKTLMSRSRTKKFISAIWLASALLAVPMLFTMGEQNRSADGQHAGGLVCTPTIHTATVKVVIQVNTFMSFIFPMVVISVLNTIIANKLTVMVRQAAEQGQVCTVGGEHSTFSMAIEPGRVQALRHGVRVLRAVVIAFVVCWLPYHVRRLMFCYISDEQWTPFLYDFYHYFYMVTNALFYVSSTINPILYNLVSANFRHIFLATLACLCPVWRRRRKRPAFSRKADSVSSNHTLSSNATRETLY

[32] = biological target: Heat shock protein HSP 90-alpha (Homo sapiens, UniProt P07900); type: functional, organism-based

## N#CC1=C([S-])NC(=O)[C@H]([n+]2ccccc2)[C@H]1c1ccc(Cl)cc1
[1]
  IC50: > 56.8 µM (not active)
[2]
  IC50: > 50 µM (inactive)

## CCN(CC)c1ccc(/C=C(/C#N)c2nc3cc(C)ccc3[nH]2)c(OC(C)C)c1
[3]
  IC50: 0.557 µM (active)
[4]
  EC50: 0.823 µM (active)
[5]
  EC50: > 60 µM (not active)
[6]
  EC50: 1.62 µM (active)

## Cc1ccc(N2C(=O)c3cccc4c(N5CCN(C)CC5)ccc(c34)C2=O)c2cccnc12
[7]
  EC50: 7.8 µM (active)
[8]
  EC50: 7.84 µM (active)
[6]
  EC50: 0.658 µM (active)
[9]
  EC50: 4.61 µM (active)

## COc1ccc(-c2oc3ccc(N4CCOCC4)cc3c2/C=C/c2ccc(OC)c(OC)c2)cc1
[10]
  AC50: 2.77 µM (active)

## COc1ccc(C=C2C=C(C(C)(C)C)C(=O)C(C(C)(C)C)=C2)cc1OC
[3]
  IC50: 3.16 µM (active)
[11]
  EC50: 2.93 µM (active)
[12]
  EC50: 6.69 µM (active)
[13]
  CC50: 12.8 µM (active)
[14]
  EC50: 3.54 µM (inconclusive)
[15]
  EC50: 5.35 µM (inconclusive)
[16]
  EC50: > 32 µM (inactive)
[17]
  AC50: 1.88 µM (active)
[18]
  EC50: 0.571 µM (inconclusive)

## Cc1cc(Nc2cccc([N+](=O)[O-])c2)n2c(nc3ccccc32)c1C#N
[4]
  EC50: 2.47 µM (active)
[5]
  EC50: > 60 µM (inconclusive)
[17]
  AC50: 2.33 µM (active)
[19]
  Absolute IC50 (XBP1): 10 µM
[20]
  AC50: 1.9 µM (active)
[21]
  AC50: 2.15 µM (active)
[22]
  AC50: 3.46 µM (active)

## CCOc1cc(/C=C\[N+](=O)[O-])ccc1OCC(=O)Nc1ccccc1C
[23]
  EC50: 7.34 µM (active)
[24]
  EC50: 5.09 µM (active)
[25]
  EC50: 4.73 µM (active)
[13]
  CC50: > 40 µM (active)
[26]
  IC50: 1.8 µM (not active)
[27]
  IC50: 0.913 µM (active)
[28]
  IC50: 18.8 µM (not active)
[29]
  EC50: 12.3 µM (active)
[30]
  IC50: > 66.6 µM (inactive)
[31]
  EC50: 9.86 µM (active)
[32]
  AC50: 3.66 µM (active)
[20]
  AC50: < 0.26 µM (active)
[21]
  AC50: 22.5 µM (active)
[22]
  AC50: 4.63 µM (active)

## CC(C)(C)n1nnnc1CN1CCN(C(c2ccccc2)c2ccccc2)CC1
[6]
  EC50: 6.42 µM (active)
[9]
  EC50: 7.64 µM (active)
